According to US20030215888A1, “Androgen receptor overexpressing skeletal myoblasts” (Pfizer Inc., priority 2002, published 2003):

Experiments:
C2hAR57 cells = assay: [3H]-thymidine uptake assay, C2hAR57 cells; format: cell-based, mouse; details: for effect on [3H]-thymidine uptake: 48 hours exposure
Protocol: After 48 hours exposure to the test agents, medium containing 0.1 μCi [^3H]-thymidine (82 Ci/mmol, Amersham, Buckinghamshire, UK) per well was added and incubation was continued for two additional hours at 37° C. The assay was terminated by aspirating the culture medium and washing with ice-cold phosphate buffered saline followed by 5% trichloroacetic acid. The cells where then lysed by applying 0.3 N NaOH (75 μl per well) followed by 0.3 N HCl (75 μl per well) to neutralize the NaOH. The radioactivity in 50-μl aliquots was determined by liquid scintillation counting in 96-well plates (Packard Instrument Corporation) using a TopCount™ Scintillation Counter (Packard Instrument Corporation).

androgen receptor = target: T1, androgen receptor (Homo sapiens, UniProt P10275); details: read-out: IC50 (known affinities for the androgen receptor); printed beside rank order potency on inhibition of [3H]-thymidine uptake; cited from earlier work
T1 sequence (P10275 1-920): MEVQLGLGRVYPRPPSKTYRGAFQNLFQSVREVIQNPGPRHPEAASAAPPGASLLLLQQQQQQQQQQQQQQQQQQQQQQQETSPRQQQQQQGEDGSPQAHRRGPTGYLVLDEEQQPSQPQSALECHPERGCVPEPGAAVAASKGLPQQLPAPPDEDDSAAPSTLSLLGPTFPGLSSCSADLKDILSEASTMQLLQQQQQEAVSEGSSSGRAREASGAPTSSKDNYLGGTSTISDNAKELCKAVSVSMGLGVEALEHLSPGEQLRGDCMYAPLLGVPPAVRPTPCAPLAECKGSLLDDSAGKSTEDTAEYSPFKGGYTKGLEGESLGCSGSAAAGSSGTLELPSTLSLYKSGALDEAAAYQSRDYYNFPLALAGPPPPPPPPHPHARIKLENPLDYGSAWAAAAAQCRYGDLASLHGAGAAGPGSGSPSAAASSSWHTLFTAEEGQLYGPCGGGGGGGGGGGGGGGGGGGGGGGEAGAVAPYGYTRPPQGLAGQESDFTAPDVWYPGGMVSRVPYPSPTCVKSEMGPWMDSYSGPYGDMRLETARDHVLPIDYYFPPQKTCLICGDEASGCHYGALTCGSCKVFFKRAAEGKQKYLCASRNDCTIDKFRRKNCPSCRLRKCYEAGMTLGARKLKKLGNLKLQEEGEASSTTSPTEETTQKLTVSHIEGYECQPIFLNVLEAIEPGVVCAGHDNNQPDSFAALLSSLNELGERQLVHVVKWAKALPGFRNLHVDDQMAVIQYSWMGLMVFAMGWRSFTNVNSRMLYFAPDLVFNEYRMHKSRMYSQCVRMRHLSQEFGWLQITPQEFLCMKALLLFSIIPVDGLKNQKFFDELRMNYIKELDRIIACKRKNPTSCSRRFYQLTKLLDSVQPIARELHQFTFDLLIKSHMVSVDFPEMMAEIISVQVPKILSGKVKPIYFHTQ

Structure (SMILES) | reversal of the inhibition of [3H]-thymidine uptake by 0.1 nM DHT (C2hAR57 cells; concomitant addition with 0.1 nM DHT) | effect on [3H]-thymidine uptake (C2hAR57 cells) | IC50 (androgen receptor)
CC(C)(O)C(=O)Nc1ccc([N+](=O)[O-])c(C(F)(F)F)c1 [2-hydroxyflutamide] | completely reversed | – | –
C[C@]12COC(=O)C[C@@H]1CC[C@@H]1[C@@H]2CC[C@@]2(C)[C@H]1CC[C@]2(C)O [oxandrolone] | – | dose-dependent inhibitory effects | 28.4 nM
C[C@]12CC[C@H]3[C@@H](CCC4=CC(=O)CC[C@@]43C)[C@@H]1CC[C@@H]2O [testosterone] | – | dose-dependent inhibitory effects | –
C[C@]12Cc3c[nH]nc3C[C@@H]1CC[C@@H]1[C@@H]2CC[C@@]2(C)[C@H]1CC[C@]2(C)O [stanozolol] | – | dose-dependent inhibitory effects | –
